According to article PMC12096834, “Antimicrobial peptide plectasin recombinantly produced in Escherichia coli disintegrates cell walls of gram-positive bacteria, as proven by transmission electron and atomic force microscopy” (Journal of Bacteriology, 2025):

Key:
[1] = published findings; 59 (Mygind et al. 2005); cited from earlier work
Listeria monocytogenes = assay: AFM cell thickness, stiffness and roughness; format: cell-based; conditions: plectasin 4 x MIC, CASPON-plectasin same molar quantity, mean ± SD of 20 measurements; for Stiffness: AFM force spectroscopy, untreated 5.4 ± 3.1
Description: (§1) All AFM measurements were performed on a Vecoo-Bruker AFM (Diamond, Chilton, UK), including imaging and force distance measurement. Before and after measurements, the triangular cantilever was cleaned with EtOH and acetone. Sensitivity and the spring constant were calibrated by the thermal tune method by making use of the equipartition theorem, preceded by continued ramping. After calibration, the spring constant was set to 0.4017 N/m for performing measurements.
(§2) Bacterial suspensions were prepared by taking bacterial colonies out of overnight grown agar plates and resuspending them in MHB. The suspension was set to an OD625 extinction of 0.15–0.20 corresponding to a bacterial cell density of approximately 2 × 10^8 CFU/mL. Then, 3 × 1 mL of suspension was transferred into a 2-mL reaction tube and mixed with either plectasin, CASPON-plectasin, or PBS buffer to obtain volume conditions. The concentration for plectasin was 4 x MIC, and CASPON-plectasin was of the same molar quantity as plectasin. After incubation, the bacterial suspensions were washed with PBS three times, using mild centrifugation conditions for each wash cycle (3,000 g, 15 minutes) to avoid cell damage. The washed bacterial suspension was transferred to borosilicate glass slides (24 mm diameter, 0.1 mm thickness, Menzel Gläser, Braunschweig, Germany) and left to adhere to the surface (electrostatics) for 1 hour. Afterward, the slides were washed with MilliQ water and transferred to AFM.
(§3) Bacterial images were visualized by square areas of 2 × 2 µm^2 up to 25 × 25 µm^2 with a resolution of 512 × 512 pixels. At least 15 images were taken per sample with different square dimensions for proper visualization. Surface roughness and shapes of the bacterial cell were estimated using Gwyddion software after applying a mean filter to the raw images. A total of 20 measurements were taken on cells for each parameter, providing enough values for statistical evaluation. For additional information and an illustration of the determination principle, please refer to the supplementary material (Fig. S3), which includes an example on S. aureus. By using the following equations, the surface roughness of a selected area of this flattened area was calculated from the standard deviation in the height image. The mean roughness (Ra) and the root-mean-square roughness (Rq or RMS) were used to characterize the surface of different samples:
(§4) After the position of the bacteria was determined, force spectroscopy was performed. Measurement of the central region of bacteria was performed with an approach speed of 10 µm/s and a maximum force of 2 nN. A curve length of 1 µm and a sampling rate of 2 kHz were used. At least 20 bacteria per sample were measured. Analysis of the force distance curves was performed using the software NanoScope Analysis 1.5. For calculating the stiffness of each bacterial cell, the following question was utilized:
(§5) where keff is the effective stiffness (received from the slope of the measured curve), ksample is the stiffness of the sample (bacterial cell), and kspring is the spring constant (0.4017 N/m). All constants have the unit N/m. Rearrangement of the formula leads to the following relation: […]
(§6) Measurements were pooled, and properties were calculated as described above. For each parameter, 20 measurements were used to obtain appropriate statistical values. Analysis of variance (ANOVA) was performed, followed by Student’s t-test, which is a statistical procedure that compares the averages of two independent groups (plectasin/CASPON-plectasin treated vs untreated) to determine significance in the surface roughness and stiffness of bacteria. Significances are indicated in figures and reported as “ns” for P > 0.05, “*” for P ≤ 0.05, “**” for P ≤ 0.01, and “***” for P ≤ 0.001.

Streptococcus pneumoniae = assay: AFM cell thickness, stiffness and roughness; format: cell-based; conditions: plectasin 4 x MIC, CASPON-plectasin same molar quantity, mean ± SD of 20 measurements; for Stiffness: AFM force spectroscopy, untreated 6.2 ± 2.4
Description: as §1, §2, §3, §4, §5, §6

Enterococcus faecalis = assay: AFM cell thickness, stiffness and roughness; format: cell-based; conditions: plectasin 4 x MIC, CASPON-plectasin same molar quantity, mean ± SD of 20 measurements; for Stiffness: AFM force spectroscopy, untreated 8.0 ± 3.7
Description: as §1, §2, §3, §4, §5, §6

## CC[C@H](C)[C@@H]1NC(=O)[C@H](CO)NC(=O)[C@H](CCCCN)NC(=O)[C@@H]2CSSC[C@@H](C(=O)N[C@@H](Cc3ccc(O)cc3)C(=O)O)NC(=O)[C@H](CCCCN)NC(=O)[C@@H]3CSSC[C@H](NC(=O)[C@H](CCC(N)=O)NC(=O)[C@H](CCSC)NC(=O)[C@H](CC(=O)O)NC(=O)[C@H](CC(=O)O)NC(=O)[C@H](CCC(=O)O)NC(=O)[C@H](CC(=O)O)NC(=O)[C@H](Cc4c[nH]c5ccccc45)NC(=O)[C@@H]4CCCN4C(=O)CNC(=O)[C@H](CC(N)=O)NC(=O)[C@@H](NC(=O)CNC(=O)[C@H](Cc4ccccc4)NC(=O)CN)CSSC[C@H](NC(=O)[C@H](Cc4ccc(O)cc4)NC(=O)CNC(=O)CNC(=O)[C@H](CCCCN)NC(=O)[C@H](Cc4ccc(O)cc4)NC(=O)CNC(=O)[C@H](CCCCN)NC1=O)C(=O)N[C@@H](C)C(=O)N[C@@H](CCCCN)C(=O)NCC(=O)NCC(=O)N[C@@H](Cc1ccccc1)C(=O)N[C@@H](C(C)C)C(=O)N3)C(=O)N[C@@H](Cc1c[nH]cn1)C(=O)N[C@@H](CC(N)=O)C(=O)N[C@@H](Cc1c[nH]cn1)C(=O)N2 [Plectasin, plectasin]
[1]
  maximum solubility of plectasin: ~ 1.6 g/L
Listeria monocytogenes
  Stiffness: approximately 4 N/m
Listeria monocytogenes; SD
  Stiffness: 3.5 ± 1.4 N/m
Listeria monocytogenes; AFM, untreated 8.1 ± 2.5, SD
  Ra (mean roughness): 13.5 ± 2.4 nm
Listeria monocytogenes; AFM, untreated 11.2 ± 3.4, SD
  Rq (root-mean-square roughness): 16.9 ± 2.8 nm
Listeria monocytogenes; AFM, untreated 297.0 ± 13.3, SD
  Cell thickness: 297.8 ± 14.0 nm
Streptococcus pneumoniae
  Stiffness: approximately 4 N/m
Streptococcus pneumoniae; SD
  Stiffness: 4.7 ± 1.1 N/m
Streptococcus pneumoniae; AFM, untreated 15.5 ± 4.2, SD
  Ra (mean roughness): 19.7 ± 5.3 nm
Streptococcus pneumoniae; AFM, untreated 18.8 ± 4.8, SD
  Rq (root-mean-square roughness): 24.5 ± 6.0 nm
Streptococcus pneumoniae; AFM, untreated 375.8 ± 28.4, SD
  Cell thickness: 366.0 ± 54.1 nm
Enterococcus faecalis
  Stiffness: approximately 4 N/m
Enterococcus faecalis; SD
  Stiffness: 4.6 ± 1.9 N/m
Enterococcus faecalis; AFM, untreated 10.0 ± 2.5, SD
  Ra (mean roughness): 19.4 ± 3.2 nm
Enterococcus faecalis; AFM, untreated 12.2 ± 3.4, SD
  Rq (root-mean-square roughness): 23.5 ± 3.4 nm
Enterococcus faecalis; AFM, untreated 480.3 ± 30.6, SD
  Cell thickness: 473.5 ± 47.5 nm
